Results taken from patent publication US11366121B2, “Specific GNAI:GIV interaction screening assays, methods and compositions” (The Regents of the University of California, priority 2017, dated 2022).

Legend:
GIV:Gαi3 interaction = GIV:Gαi3 interaction (Homo sapiens, UniProt P08754); assay: fluorescence polarization (FP) assay monitoring the GIV:Gαi3 interaction, dose response curves; format: binding; conditions: FIG. 11D
Method: (§1) FIGS. 11A-11E. A HTS-compatible fluorescence polarization (FP) assay to monitor the GIV:Gαi3 interaction.
(§2) FIG. 14. Kd's determined from fluorescence polarization assays with FITC peptides and hGαi3.
(§3) A pilot screen of the LOPAC1280 library (collection of known bioactive compounds) was conducted and identified lead compounds with inhibitory activity (FIG. 11A). A virtual ligand screen (VLS) of the same library (LOPAC1280) was conducted using in silico docking methods (FIG. 11B). The results from both screens were compared. […] From the virtual screen 7 ‘hits’ (FIG. 11B) were identified. Importantly, 2 of the virtual screen hits matched the results from the FP assay and a third was validated as a GIV:Gαi inhibitor. Compounds were validated by dose response curves (FIG. 11D). […] None of the other 4 hits predicted by the VLS inhibited binding.

GIV:Gαi = GIV:Gαi (Homo sapiens, UniProt P08754); assay: GST-pulldown assay confirming hits; format: binding; conditions: FIG. 11E
GIV:Gαi, sequence (P08754 whole entry): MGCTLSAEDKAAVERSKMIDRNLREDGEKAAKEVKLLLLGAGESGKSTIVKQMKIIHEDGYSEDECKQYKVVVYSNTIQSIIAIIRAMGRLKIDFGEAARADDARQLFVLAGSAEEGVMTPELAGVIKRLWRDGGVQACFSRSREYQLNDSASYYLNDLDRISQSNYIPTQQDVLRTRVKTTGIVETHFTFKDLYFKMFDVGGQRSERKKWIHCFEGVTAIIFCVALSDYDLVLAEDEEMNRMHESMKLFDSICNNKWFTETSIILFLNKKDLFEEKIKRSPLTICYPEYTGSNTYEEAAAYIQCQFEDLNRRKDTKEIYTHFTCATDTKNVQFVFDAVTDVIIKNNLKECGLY
Method: as §3

[1] = target: GIV:Gαi3 (hGαi3 with FITC-labelled GIV C-terminal peptide KTGSPGSEVVTLQQFLEESNKLTSVQIKSSS, SEQ ID NO: 1) (Homo sapiens, UniProt P08754); assay: Inhibition of GIV:Gαi3 interaction by fluorescence polarization (FITC-GIV peptide binding to hGαi3); confirmed hits, FIG. 10
UniProt P08754, sequence (P08754 whole entry): as the sequence (P08754 whole entry) above
Source text: FIG. 10. Further analysis of confirmed hits validate the assay to identify inhibitors of the target.
as §1, §2
The present invention provides a research tool assay for identifying a specific modulator of GNAI, comprising: (a) combining a drug candidate with GNAI and a C-terminal GIV peptide and determining if the drug candidate inhibits GNAI interaction with the C-terminal GIV peptide; and (b) combining the drug candidate with GNAI and a DAPLE peptide and determining if the drug candidate inhibits GNAI interaction with DAPLE peptide.
In embodiments, the C-terminal GIV peptide comprises the amino acid sequence of SEQ ID NO: 1. In embodiments, the DAPLE peptide comprises the amino acid sequence of SEQ ID NO:2.
In embodiments, the determining steps are detected by fluorescent polarization.
In embodiments, the invention provides an assay and method for screening for drug candidates which act as specific inhibitors against the GNAI:GIV interface. […]
As for the first step in the assay, this small region of 31 aa GIV peptide: […] (SEQ ID NO: 1) was arrived at after careful biochemistry determined that anything less than this is less efficient in binding or activation the G protein, GNAI. […]

GIV:Gαi3 interaction, sequence (P08754 whole entry): as the sequence (P08754 whole entry) above

IC50 (GIV:Gαi3 interaction) [µM]	confirmation as hit by GST-pulldown (GIV:Gαi)	Ki [1] [µM]	SMILES
~805			Cc1ccc(C(=O)Nc2ccc(S(=O)(=O)O)c3cc(S(=O)(=O)O)cc(S(=O)(=O)O)c23)cc1NC(=O)c1cccc(NC(=O)Nc2cccc(C(=O)Nc3cc(C(=O)Nc4ccc(S(=O)(=O)O)c5cc(S(=O)(=O)O)cc(S(=O)(=O)O)c45)ccc3C)c2)c1 [suramin]
	false positive		CC[C@@]1(O)C(=O)OCc2c1cc1n(c2=O)Cc2cc3c(CN(C)C)c(O)ccc3nc2-1 [topotecan]

Second part, the compound before the results:

SMILES	IC50 (GIV:Gαi3 interaction) [µM]	confirmation as hit by GST-pulldown (GIV:Gαi)	Ki [1] [µM]
O=C(O)C1=CC(=C(c2ccc(O)c(C(=O)O)c2)c2ccc(O)c(C(=O)O)c2)C=CC1=O [ATA, aurintricarboxylic acid]	~5		
O=C(Nc1cccc(C(=O)Nc2ccc(S(=O)(=O)[O-])c3cc(S(=O)(=O)[O-])cc(S(=O)(=O)[O-])c23)c1)Nc1cccc(C(=O)Nc2ccc(S(=O)(=O)[O-])c3cc(S(=O)(=O)[O-])cc(S(=O)(=O)[O-])c23)c1.[Na+].[Na+].[Na+].[Na+].[Na+].[Na+] [NF023, 8,8′-[carbonylbis(imino-3,1-phenylenecarbonylimino)]bis(1,3,5-naphthalene-trisulfonic acid) hexasodium salt]	~5	true hits	
Cc1ccc(C(=O)Nc2ccc(S(=O)(=O)O)c3cc(S(=O)(=O)O)cc(S(=O)(=O)O)c23)cc1NC(=O)c1cccc(NC(=O)Nc2cccc(C(=O)Nc3cc(C(=O)Nc4ccc(S(=O)(=O)O)c5cc(S(=O)(=O)O)cc(S(=O)(=O)O)c45)ccc3C)c2)c1 [Suramin, suramin]			49
